A short description of data set [1]: Glibenclamide particle size distribution. Type of data set: physicochemical. To be noted: glibenclamide batch. How it is done:
In-vivo bioavailability tests were performed with tablets prepared as disclosed in example 2, using two batches of glibenclamide. The two batches have the following 10 to 90% particle size range:
The distribution of the particle size of batches A and B are illustrated in FIG. 1.
Data from the studies with metformin hydrochloride/glibenclamide tablets formulated with glibenclamide of different particle size characteristics allowed the development of a correlation between drug particle size and the in vivo performance.

For data set [2] the following is noted: in water at 25° C.; cited from earlier work.

Converted amounts (≈) assume the structure as drawn.

Data on three compounds can be found in patent publication USRE38629E1, “Solid oral dosage form comprising a combination of metformin and glibenclamide” (Merck Sante, priority 1998, dated 2004).

For `COc1ccc(Cl)cc1C(=O)NCCc1ccc(S(=O)(=O)NC(=O)NC2CCCCC2)cc1` [batch A, glibenclamide], in data set [1], the “10 to 90% particle size range” value was 3.47-38.08 μm. On the same count and under the same terms, for `COc1ccc(Cl)cc1C(=O)NCCc1ccc(S(=O)(=O)NC(=O)NC2CCCCC2)cc1` [batch B, glibenclamide] the value was 15.63-91.6 μm. One may read the solubility as the dissolved amount per volume that the medium holds. Take `COc1ccc(Cl)cc1C(=O)NCCc1ccc(S(=O)(=O)NC(=O)NC2CCCCC2)cc1` [glibenclamide]: in data set [2], the solubility is 100 µg/mL (≈ 202 µM).
